From patent US20080057054A1, “Modulation of Phagocytosis in Neurons” (Vlaams Interuniversitair Instituut Voor Biotechnol, priority 2004, published 2008)

Molecular target: T1, γ-secretase (Homo sapiens, UniProt P49768)
T1 construct: endogenous in cells; host or cells: HeLa cells
Test: γ-secretase luciferase reporter assay (Gal4VP16 inducer constructs)
Format: cell-based
Design: dose or concentration left out as unconfirmed
Conditions: lysed after 16 hrs; for nuclear translocation of the inducer fragment (luciferase activity), APP: APP-Gal4VP16 inducer in Hela cells; for nuclear translocation of the inducer fragment (luciferase activity), Notch: NotchΔE-Gal4VP16 inducer in Hela cells
Source text: In wild-type hippocampal neurons, TLN localizes to the plasmalemma whereas in 30% of PS1−/− neurons, TLN additionally accumulates in large somatic structures, the identity of which remained elusive (Annaert et al., 2001). […] Therefore we tested whether TLN is a γ-secretase substrate. In 15 day old PS1−/− hippocampal cultures we could not detect any TLN C-terminal fragment (CTF) as apposed to APP-CTF that readily accumulate. Even upon Semliki Forest Virus (SFV)-induced overexpression, no TLN-CTF was detected. Since no putative mechanism of shedding of the TLN ectodomain is known, we generated a TLNΔE that could serve as a potential γ-secretase substrate. No intracellular domain fragments were however detected indicating the absence of γ-secretase cleavage. […] Release of a potential intracellular domain of TLN can be measured via the activity of luciferase. […] To investigate whether the TLN transmembrane domain could be a γ-secretase substrate in the context of the APP protein, we swapped the transmembrane regions of TLN and APP to create an APP/TLNTMR-chimaera. Even in this case no activity could be detected. Therefore we conclude that TLN is most likely not a γ-secretase substratum.
pSFV constructs encoding human APP, murine TLN and TLNΔE have been described (Annaert et al., 2001). APP and NotchΔE were cloned into the EcoRV site in front of the Gal4VP16 sequence in pIPAdApt vector. A construct encoding 10 aa of the ectodomain, the transmembrane and cytosolic domains of TLN was obtained by PCR and ligated in pGEMT containing the TLN signal peptide (SP). SP-TLNΔE was next cloned into pIPAdApt and GAL 4VP16 was inserted resulting in a pIPAdApt-SP-TLNΔE-Gal4-VP16 construct. For the APP/TLNTMR chimaera, the coding region for APP-TMR was replaced by a PCR fragment encoding the TLN-TMR. Luciferase assay. Hela cells were transfected with 200 ng pFRluc plasmid (UAS-responsive luciferase construct, Stratagene) and 200 ng inducer plasmid using Fugene ([…]) and after 16 hrs lysed and assayed (Victor2, PerkinElmer).

nuclear translocation of the inducer fragment (luciferase activity), APP | nuclear translocation of the inducer fragment (luciferase activity), Notch | Compound
strongly inhibited | strongly inhibited | C[C@H](NC(=O)Cc1cc(F)cc(F)c1)C(=O)N[C@H](C(=O)OC(C)(C)C)c1ccccc1 [DAPT]
strongly inhibited | strongly inhibited | CC(C)C[C@H](NC(=O)[C@H](Cc1ccccc1)C[C@@H](O)[C@H](Cc1ccccc1)NC(=O)OC(C)(C)C)C(=O)N[C@@H](Cc1ccccc1)C(N)=O [L685,458]
